Experimental data taken from patent publication US11246308B2, “Ice-free preservation of large volume tissue samples for viable, functional tissue banking” (TISSUE TESTING TECHNOLOGIES LLC, priority 2016, dated 2022).

How the values were obtained:
[1] = tested on: heart valve tissues (pulmonary artery, leaflet and cardiac muscle); test: alamarBlue metabolic activity of heart valve tissues vitrified in 4 mL of solution (FIG. 1); assay type: cell-based; conditions: for post-vitrification viability: 0.6M sugar in DP6, VS49 and VS55; for leaflet viability: 4 mL; for leaflet viability / tissue viability: p<0.05; for tissue viability: trehalose and sucrose supplementation of vitrification formulations (VS49, DP6, VS55), compared with no additive controls, N=6
Procedure: (§1) In the following ice-free cryopreservation formulation supplementation experiments, disaccharides (trehalose and sucrose) are added to various vitrification formulations (VS49, DP6, and VS55) in the amounts shown in FIG. 1 and compared to a solution (without trehalose and/or sucrose) to access the effectiveness at inhibiting ice formation in various tissues.
Data shown in % of control VS55 results performed with the final cryoprotectant concentration added at 4° C., N=6, *p<0.05 by ANOVA or #T-test compared with no additive controls.
In this experiment, addition of either 600 mM trehalose or sucrose to VS49, DP6 and VS55 formulations was compared. The tissues were vitrified in 4 mL of solution. Trehalose supplementation increased leaflet viability in VS49 and VS55. Sucrose supplementation increased leaflet viability in all three formulations. […] This led to plans to test DP6 with sugars more thoroughly in later experiments. Repetitive experiments were performed using sucrose supplemented VS55 and obtained outcomes similar to those for supplemented VS55 shown here.
Bonafide excess heart valves or blood vessels were obtained from animals employed in other IACUC approved research studies or from a food processing plant post-mortem. The tissues were dissected, rinsed and placed in sterile cups with ice-cold tissue culture medium containing antibiotics overnight and then allocated for in vitro studies. The heart valve tissues in FIG. 1 each consisted of a piece of tissue consisting of pulmonary artery, leaflet and cardiac muscle. They were separated and individually assayed for viability using an assay that assesses metabolic activity that is described below.
(§2) Tissues were gradually infiltrated with VS55 consisting of 3.10 M DMSO, 3.10M formamide, and 2.21 M propylene glycol in Euro-Collins solution at 4° C. using methods previously described for blood vessel vitrification, a dilution of VS55 to VS49 or DP6 consisting of 3 M DMSO, 3 M propylene glycol. Precooled dilute vitrification solutions (4° C.) are added in five sequential 15-min steps of increasing concentration on ice. The last cryoprotectant concentration with mNPs was added in a final sixth addition step in either precooled −10° C. or 4° C. full strength vitrification solution and kept in a −10° C. bath for 15 minutes or at 4° C. on ice in plastic tubes. The samples were then cooled in two steps, first rapid cooling to −100° C. by placing in a precooled 2-methylbutane bath at −135° C. and then by transfer to vapor phase nitrogen storage for slower cooling to below −135° C. Finally, the samples were stored below −130° C. in vapor phase nitrogen for at least 24 h before testing.
(§3) Warming was performed by either convection warming or nanowarming. Convection warming is a two-stage process including slow warming to −100° C. and then as rapid as possible warming to melting. The slow warming rate is created by taking the sample to the top of the −135° C. freezer and the […] warming rate is generated by placing the plastic container in the mixture of 30% DMSO/H2O at room temperature. After rewarming, the vitrification solution was removed in a stepwise manner on ice to keep the tissues cold and minimize cytotoxicity due to the presence of residual cryoprotectants.
Metabolic Activity—An alamarBlue™ assay will be used to evaluate the metabolic activity of control and treated tissue samples. Tissues were incubated in 2 ml of DMEM+10% FBS culture medium for one hour to equilibrate followed by the addition of 20% AlamarBlue under standard cell culture conditions for 3 hours. AlamarBlue is a non-toxic fluorometric indicator based on detection of metabolic activity. Fluorescence was measured at an excitation wavelength of 544 nm and an emission wavelength of 590 nm. […] Control and experimental tissues were dried at the end of each experiment, weighed, and results expressed as relative fluorescence units (RFU)/mg tissue dry weight.

[2] = visible ice formation during cooling and rewarming, 1st set of experiments; assay type: physicochemical; conditions: for visible ice formation: 0.6M sugar in both DP6 and VS49 formulations; for ice formation during cooling and rewarming: in the presence of the sugar, with nanowarming
Procedure: as §1, §2, §3

[3] = ice formation in VS55 supplemented with sugars stored at −80 C (FIG. 7); assay type: physicochemical; conditions: for sugar concentrations in VS55 that demonstrated ice (white) formation: 24 hours at −80° C.
Procedure: In this experiment 30 mL samples of VS55 with increasing concentrations of sugars were placed in 50 mL plastic tubes and stored in a −80 C mechanical storage freezer for 7 days. The tubes were checked daily for ice formation. […] After one day 0.4 to 0.6M trehalose and 0.5-0.6M sucrose were free of ice, while after 7 days 0.5-0.6M trehalose and 0.6M sucrose groups were free of ice. Lower concentrations of these sugars may still be used for ice-free vitrification but more rapid cooling and warming will be needed because the risk of ice formation will be greater and nanowarming rather than convection warming may be needed. Specifically, FIG. 7 is photograph illustrating the ice formation in VS55 supplemented with sugars at −80° C.: Top left: VS55 with 0-0.6M sucrose at 24 hours; Top right: VS55 with 0-0.6M trehalose at 24 hours. […] Higher concentrations were clear without ice. Bottom left: VS55 with 0-0.6M sucrose at 7 days; and Bottom right: VS55 with 0-0.6M trehalose at 7 days. After a week at −80° C. the highest concentrations of sugars are still free of ice.

OC[C@H]1O[C@H](O[C@H]2O[C@H](CO)[C@@H](O)[C@H](O)[C@H]2O)[C@H](O)[C@@H](O)[C@@H]1O [trehalose]
post-vitrification viability [1]: increases | leaflet viability ([1]; 600 mM trehalose added to VS49 and VS55): increased | tissue viability [1]: significant increases | visible ice formation [2]: prevents visible ice formation | ice formation during cooling and rewarming [2]: no ice formation | sugar concentrations in VS55 that demonstrated ice (white) formation [3]: 0 to 0.6 M

OC[C@H]1O[C@@](CO)(O[C@H]2O[C@H](CO)[C@@H](O)[C@H](O)[C@H]2O)[C@@H](O)[C@@H]1O [sucrose]
leaflet viability ([1]; 600 mM sucrose added to all three formulations (VS49, DP6, VS55)): increased | post-vitrification viability [1]: increases | tissue viability [1]: significant increases | visible ice formation [2]: prevents visible ice formation | ice formation during cooling and rewarming [2]: no ice formation | sugar concentrations in VS55 that demonstrated ice (white) formation [3]: 0 to 0.4 M | sugar concentrations in VS55 free of ice ([3]; after 7 days at −80 C, 30 mL samples): 0.6 M
